In ChEMBL document CHEMBL1124519 (J Med Chem, 1989):

Experiments:
[1] = Half-life period obtained from linear regression of metabolite concentration in aqueous buffer of pH 7.4 at 37 degrees Celsius in 200 mM phosphate buffer.; assay type: ADME
L1210 = assay: The cytotoxicity (LC99) was evaluated in vitro against L1210 cells obtained from cultured mice.; assay type: functional, Mus musculus
Homo sapiens = species: Homo sapiens; assay: Half-life period obtained from linear regression of metabolite concentration in Human plasma containing 100 mM phosphate, at pH 7.4; assay type: ADME
[2] = Half-life period obtained from linear regression of metabolite concentration in aqueous buffer of pH 7.4 at 37 degrees Celsius in 100 mM phosphate buffer.; assay type: ADME

Row | SMILES | T1/2 [1] | LC99 (L1210) | T1/2 (Homo sapiens) | T1/2 [2]
1 | O=P(O)(NCCCl)NCCCl [PALIFOSFAMIDE] | 61 min | 70 µM | – | –
2 | O=CCCOP(=O)(NCCCl)NCCCl.O=P1(NCCCl)OCCC(O)N1CCCl | – | 12.6 µM | 10 min | 50 min
